Test results: ChEMBL document CHEMBL6127050, “Simultaneous inhibition of FLT3 and HDAC by novel 6-ethylpyrazine-2-Carboxamide derivatives provides therapeutic advantages in acute myelocytic leukemia” (Eur J Med Chem, 2024)
Calls of active or inactive are those of the source. The calls are words filed in the database; no cut-off is given here.

Columns and labels:
[1] = biological target: T1, Histone deacetylase (Homo sapiens) (UniProt Q13547+O15379+Q9UBN7+Q92769+Q9UQL6+Q8WUI4+Q9BY41+Q96DB2+P56524+Q9UKV0+Q969S8); assay: Inhibition of HDAC in human HeLa nuclear extract using Boc-Lys(Ac)-AMC as substrate at 200 nM incubated for 0.5 hrs by microplate reader analysis relative to control; type: cell-free
[2] = biological target: T1, Histone deacetylase (Homo sapiens); assay: Inhibition of HDAC in human HeLa nuclear extract using Boc-Lys(Ac)-AMC as substrate at 10000 nM incubated for 0.5 hrs by microplate reader analysis relative to control; type: cell-free
[3] = biological target: Histone deacetylase; assay: Inhibition of HDAC in human HeLa nuclear extract using Boc-Lys(Ac)-AMC as substrate incubated for 0.5 hrs by microplate reader analysis; type: cell-based
[4] = Toxicity in BALB/c mouse xenografted with human MOLM-13 cells assessed as body weight loss at 10 mg/kg, IG qd administered 5 days a week and measured on day 9 in presence of vorinostat; type: organism-based; details: in vivo, po, 216 h, time 9 day
[5] = test system: MOLM-13; assay: Induction of cell cycle arrest in human MOLM-13 cells assessed as accumulation of cells at G2M phase at 0.05 uM measured for 48 hrs by PI/RNase staining based flow cytometric analysis (reference value: 10.81%); type: functional
[6] = test system: MOLM-13; assay: Induction of cell cycle arrest in human MOLM-13 cells assessed as accumulation of cells at G0/G1 phase at 0.05 uM measured for 48 hrs in presence of vorinostat by PI/RNase staining based flow cytometric analysis (reference value: 46.24 %); type: functional
[7] = Toxicity in NOD/SCID mouse xenografted with human MOLM-13 cells assessed as increase in survival rate at 15 mg/kg, IG administered 5 days per week in presence of vorinostat by Kaplan Mayer survival analysis; type: organism-based; details: in vivo, po, 120 h, time 5 day
[8] = test system: MOLM-13; assay: Induction of apoptosis in human MOLM-13 cells assessed as necrotic at 0.1 uM incubated for 48 hrs by Annexin V-FITC staining based flow cytometry analysis (reference value: 0.013 %); type: functional
[9] = test system: MOLM-13; assay: Antiproliferative activity against human MOLM-13 cells incubated for 48 hrs; details: MOLM-13, 48 h
[10] = test system: MOLM-13; assay: Antitumor activity against human MOLM-13 cells xenografted BALB/c mouse assessed as reduction in tumor volume at 10 mg/kg, IG qd administered 5 days a week and measured on day 9 in presence of vorinostat; type: functional, organism-based; details: time 9.0 day
[11] = test system: MOLM-13; assay: Induction of apoptosis in human MOLM-13 cells assessed as early apoptotic cells at 0.1 uM incubated for 48 hrs in presence of vorinostat by Annexin V-FITC staining based flow cytometry analysis (reference value: 4.07 %); type: functional
[12] = test system: MOLM-13; assay: Induction of apoptosis in human MOLM-13 cells assessed as late apoptotic cells at 0.1 uM incubated for 48 hrs in presence of vorinostat by Annexin V-FITC staining based flow cytometry analysis (reference value: 1.40 %); type: functional
[13] = test system: MOLM-13; assay: Induction of apoptosis in human MOLM-13 cells assessed as viable cells at 0.1 uM incubated for 48 hrs by Annexin V-FITC staining based flow cytometry analysis (reference value: 94.5 %); type: functional; details: Homo sapiens, MOLM-13, read-out: Activity
[14] = test system: MOLM-13; assay: Induction of apoptosis in human MOLM-13 cells assessed as early apoptotic cells at 0.1 uM incubated for 48 hrs by Annexin V-FITC staining based flow cytometry analysis (reference value: 4.07 %); type: functional
[15] = test system: MOLM-13; assay: Induction of cell cycle arrest in human MOLM-13 cells assessed as accumulation of cells at S-phase at 0.05 uM measured for 48 hrs by PI/RNase staining based flow cytometric analysis (reference value: 42.95%); type: functional
[16] = test system: MOLM-13; assay: Induction of apoptosis in human MOLM-13 cells assessed as necrotic cells at 0.1 uM incubated for 48 hrs in presence of vorinostat by Annexin V-FITC staining based flow cytometry analysis (reference value: 0.013 %); type: functional
[17] = Toxicity in BALB/c mouse xenografted with human MOLM-13 cells assessed as lung damage at 10 mg/kg, IG qd administered 5 days a week and measured on day 9 in presence of vorinostat by H and E staining based analysis; type: organism-based; details: in vivo, po, 216 h, time 9 day
[18] = Cytotoxicity against HEK293T cells incubated for 48 hrs; type: toxicity, cell-based, HEK-293T; details: human
[19] = test system: KG-1; assay: Antiproliferative activity against human KG-1 cells incubated for 48 hrs; details: KG-1, 48 h
[20] = test system: MOLM-13; assay: Induction of cell cycle arrest in human MOLM-13 cells assessed as accumulation of cells at S-phase at 0.05 uM measured for 48 hrs in presence of vorinostat by PI/RNase staining based flow cytometric analysis (reference value: 42.95%); type: functional
[21] = test system: MOLM-13; assay: Induction of apoptosis in human MOLM-13 cells assessed as viable cells at 0.1 uM incubated for 48 hrs in presence of vorinostat by Annexin V-FITC staining based flow cytometry analysis (reference value: 94.5 %); type: functional; details: read-out: Activity
[22] = test system: K562; assay: Antiproliferative activity against human K562 cells incubated for 48 hrs; details: K562, 48 h
[23] = test system: MOLM-13; assay: Antitumor activity against human MOLM-13 cells xenografted BALB/c mouse assessed as tumor growth inhibition at 10 mg/kg, IG qd administered 5 days a week and measured on day 9 in presence of vorinostat; type: functional; details: MOLM-13, po, 216 h, time 9 day, read-out: TGI
[24] = test system: THP-1; assay: Antiproliferative activity against human THP-1 cells incubated for 48 hrs; details: THP-1, 48 h
[25] = test system: MOLM-13; assay: Induction of apoptosis in human MOLM-13 cells assessed as late apoptotic cells at 0.1 uM incubated for 48 hrs by Annexin V-FITC staining based flow cytometry analysis (reference value: 1.40 %); type: functional
[26] = test system: MOLM-13; assay: Induction of cell cycle arrest in human MOLM-13 cells assessed as accumulation of cells at G2M phase at 0.05 uM measured for 48 hrs in presence of vorinostat by PI/RNase staining based flow cytometric analysis (reference value: 10.81%); type: functional
[27] = test system: MOLM-13; assay: Induction of cell cycle arrest in human MOLM-13 cells assessed as accumulation of cells at G0/G1 phase at 0.05 uM measured for 48 hrs by PI/RNase staining based flow cytometric analysis (reference value: 46.24 %); type: functional
[28] = biological target: T2, Receptor-type tyrosine-protein kinase FLT3 (Homo sapiens, UniProt P36888); assay: Inhibition of FLT3 (unknown origin) incubated for 40 mins in presence of ATP by kinase-glo plus luminescence assay
T2 sequence (P36888 whole entry): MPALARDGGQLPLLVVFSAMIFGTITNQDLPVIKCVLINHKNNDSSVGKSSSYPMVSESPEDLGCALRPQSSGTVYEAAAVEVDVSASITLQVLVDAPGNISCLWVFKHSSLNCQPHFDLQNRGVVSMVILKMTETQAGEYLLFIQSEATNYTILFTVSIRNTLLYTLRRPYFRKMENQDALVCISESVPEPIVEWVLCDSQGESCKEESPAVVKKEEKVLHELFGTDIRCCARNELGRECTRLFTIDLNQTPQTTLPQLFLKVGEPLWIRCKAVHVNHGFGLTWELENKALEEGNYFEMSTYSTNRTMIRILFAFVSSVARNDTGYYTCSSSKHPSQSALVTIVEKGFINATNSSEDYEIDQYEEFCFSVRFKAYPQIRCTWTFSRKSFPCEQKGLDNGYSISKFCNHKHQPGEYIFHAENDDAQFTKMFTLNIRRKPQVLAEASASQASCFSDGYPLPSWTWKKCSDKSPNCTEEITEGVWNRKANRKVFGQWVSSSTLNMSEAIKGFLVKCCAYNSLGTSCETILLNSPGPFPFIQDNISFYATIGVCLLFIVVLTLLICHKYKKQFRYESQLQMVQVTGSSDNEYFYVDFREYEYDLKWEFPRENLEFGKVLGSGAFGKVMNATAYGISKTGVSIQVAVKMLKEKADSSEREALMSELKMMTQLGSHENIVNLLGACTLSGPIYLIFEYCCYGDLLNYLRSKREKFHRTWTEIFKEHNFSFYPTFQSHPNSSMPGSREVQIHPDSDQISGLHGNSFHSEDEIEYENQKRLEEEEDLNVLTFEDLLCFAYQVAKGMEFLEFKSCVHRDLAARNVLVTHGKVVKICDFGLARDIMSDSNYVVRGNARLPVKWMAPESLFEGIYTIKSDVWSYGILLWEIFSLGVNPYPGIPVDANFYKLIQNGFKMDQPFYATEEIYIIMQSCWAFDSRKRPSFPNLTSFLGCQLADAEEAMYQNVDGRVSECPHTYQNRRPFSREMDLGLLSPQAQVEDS

CCc1nc(C(N)=O)c(Nc2ccc(N3CCN(CCCCC(=O)NO)CC3)c(OC)c2)nc1NC1CCOCC1
inhibition [1]: 1%

CCc1nc(C(N)=O)c(Nc2ccc(N3CCC(N4CCN(Cc5ccc(C(=O)NO)cc5)CC4)CC3)c(OC)c2)nc1NC1CCOCC1
inhibition [1]: 18%

CCc1nc(C(N)=O)c(Nc2ccc(N3CCC(N4CCN(c5ncc(C(=O)Nc6ccccc6N)cn5)CC4)CC3)c(OC)c2)nc1NC1CCOCC1
inhibition [2]: 4.3%

CCc1nc(C(N)=O)c(Nc2ccc(N3CCN(C(=O)CCCCCCC(=O)NO)CC3)c(OC)c2)nc1NC1CCOCC1
IC50 [3]: 147.3 nM

CCc1nc(C(N)=O)c(Nc2ccc(N3CCC(N4CCN(C(=O)CCCCC(=O)NO)CC4)CC3)c(OC)c2)nc1NC1CCOCC1
inhibition [1]: 10%

CCc1nc(C(N)=O)c(Nc2ccc(N3CCC(N4CCN(C)CC4)CC3)c(OC)c2)nc1NC1CCOCC1 [GILTERITINIB]
Activity [4]: Non-Toxic
Activity [5]: 5.53%
Activity [6]: 64.51%
Activity [7]: Non-Toxic
Activity [8]: 0.36%
IC50 [9]: 12 nM
Activity [10]: Active
Activity [11]: 35%
Activity [12]: 17.4%
viability at 0.1 µM [13]: 53.5%
Activity [14]: 33.5%
Activity [15]: 44.47%
Activity [16]: 0.88%
Activity [17]: Non-Toxic
IC50 at 48 h [18]: 970 nM
IC50 [19]: 620 nM
Activity [20]: 28.26%
viability at 0.1 µM [21]: 46.8%
IC50 [22]: 990 nM
inhibition in vivo at 10 mg/kg [23]: 55.3%
IC50 [24]: 850 nM
Activity [25]: 12.7%
Activity [26]: 7.24%
Activity [27]: 50%

CCc1nc(C(N)=O)c(Nc2ccc(N3CCC(N4CCN(CCCCCC(=O)NO)CC4)CC3)c(OC)c2)nc1NC1CCOCC1
inhibition [1]: 36%

CCc1nc(C(N)=O)c(Nc2ccc(N3CCN(CCCCCC(=O)NO)CC3)c(OC)c2)nc1NC1CCOCC1
inhibition [1]: 25%

CCc1nc(C(N)=O)c(Nc2ccc(N3CCN(CCC(=O)NO)CC3)c(OC)c2)nc1NC1CCOCC1
inhibition [1]: 10%

CCc1nc(C(N)=O)c(Nc2ccc(N3CCN(CCCCCCC(=O)NO)CC3)c(OC)c2)nc1NC1CCOCC1
IC50 [9]: 10 nM
IC50 [28]: 0.6 nM
IC50 [19]: 1440 nM
IC50 [22]: 1060 nM
IC50 [3]: 330 nM
IC50 [24]: 1550 nM

CCc1nc(C(N)=O)c(Nc2ccc(N3CCC(N4CCN(CCCCCCCC(=O)NO)CC4)CC3)c(OC)c2)nc1NC1CCOCC1
inhibition [1]: 28%

CCc1nc(C(N)=O)c(Nc2ccc(N3CCN(CCCC(=O)NO)CC3)c(OC)c2)nc1NC1CCOCC1
inhibition [1]: 3%

CCc1nc(C(N)=O)c(Nc2ccc(N3CCC(N4CCN(Cc5ccc(C(=O)NCc6ccc(/C=C/C(=O)NO)cc6)cc5)CC4)CC3)c(OC)c2)nc1NC1CCOCC1
IC50 [3]: 63 nM

CCc1nc(C(N)=O)c(Nc2ccc(N3CCN(C(=O)CCCCCC(=O)NO)CC3)c(OC)c2)nc1NC1CCOCC1
IC50 [3]: 204.3 nM

CCc1nc(C(N)=O)c(Nc2ccc(N3CCN(Cc4ccc(/C=C/C(=O)NO)cc4)CC3)c(OC)c2)nc1NC1CCOCC1
IC50 [3]: 93.7 nM

CCc1nc(C(N)=O)c(Nc2ccc(N3CCC(N4CCN(C(=O)CCCCCC(=O)NO)CC4)CC3)c(OC)c2)nc1NC1CCOCC1
inhibition [1]: 14%

CCc1nc(C(N)=O)c(Nc2ccc(N3CCC(N4CCN(Cc5ccc(C(=O)Nc6ccccc6N)cc5)CC4)CC3)c(OC)c2)nc1NC1CCOCC1
inhibition [2]: 27.5%

CCc1nc(C(N)=O)c(Nc2ccc(N3CCC(N4CCN(c5ncc(C(=O)NO)cn5)CC4)CC3)c(OC)c2)nc1NC1CCOCC1
inhibition [1]: 18.7%

CCc1nc(C(N)=O)c(Nc2ccc(N3CCC(N4CCN(C(=O)CCCC(=O)NO)CC4)CC3)c(OC)c2)nc1NC1CCOCC1
inhibition [1]: 27%

CCc1nc(C(N)=O)c(Nc2ccc(N3CCC(N4CCN(C(=O)CCCCCCC(=O)NO)CC4)CC3)c(OC)c2)nc1NC1CCOCC1
inhibition [1]: 27%

CCc1nc(C(N)=O)c(Nc2ccc(N3CCC(N4CCN(Cc5ccc(/C=C/C(=O)NO)cc5)CC4)CC3)c(OC)c2)nc1NC1CCOCC1
inhibition [1]: 28%
